biological target: human GluN1/GluN2B NMDA receptors (Homo sapiens, UniProt Q05586+Q13224); assay: Cell-based calcium flux (FLIPR) assay on cloned human NR1/NR2B ion channels expressed in mammalian cells; conditions: standard assay; glutamate at ~EC80; FLIPR calcium flux
Procedure: Effects of Test Articles on Cloned Human NR1/NR2B Ion Channels Expressed in Mammalian Cells
NMDA receptors are ion channels that are highly permeable to Ca^2+ ions, rendering it possible to monitor NMDA receptor function using cell-based calcium flux assay. In this assay, co-agonists glutamate and glycine are added to cells heterologously expressing human GluN1/GluN2B NMDA receptors to initiate cellular Ca^2+ influx. The time course of the changes in intracellular calcium is measured using a fluorescent dye and a FLIPR (Fluorometric Imaging Plate Reader) device.
Twenty four hours before measurements, the expression of the NMDA receptors in the stable cell line is induced with Tet-On inducible system in the presence of a non-selective NMDA receptor blocker. On the day of the experiment, cell culture media is carefully washed and the cells are loaded with Calcium 5 Dye Kit (Molecular Devices) in dye loading buffer containing 149 mM NaCl, 4 mM KCl, 2 mM CaCl2, and 1.5 mM MgCl2, 10 mM HEPES and 5 mM D-glucose; pH 7.4. After 1 h incubation at the room temperature, the dye is washed away with the assay buffer (149 mM NaCl (standard assay) or 150 mM (HTS assay), 4 mM KCl (standard assay) or 3 mM (HTS assay), 2 mM CaCl2, 0.01 mM EDTA, 10 mM HEPES and 5 mM D-glucose; pH 7.4) In the FLIPR TETRA reader, various concentrations of the test compounds are added to the cells for 5 min while fluorescence is monitored to detect potential agonist activity. Next, co-agonists, glutamate and glycine are added for another 5 minutes. The concentration of glutamate corresponding to ˜EC80 (standard assay) or EC40 (HTS assay) is used to maximize the assay's signal window or the ability to detect NMDA receptor antagonists and negative allosteric modulators, respectively. A saturating concentration (10 μM) of glycine is also present in the assay. […] The fluorescent signal in the presence of test compounds is quantified and normalized to the signal defined by the appropriate control wells.

Sequence of human GluN1/GluN2B NMDA receptors (Q13224 27-1484, other chains not shown): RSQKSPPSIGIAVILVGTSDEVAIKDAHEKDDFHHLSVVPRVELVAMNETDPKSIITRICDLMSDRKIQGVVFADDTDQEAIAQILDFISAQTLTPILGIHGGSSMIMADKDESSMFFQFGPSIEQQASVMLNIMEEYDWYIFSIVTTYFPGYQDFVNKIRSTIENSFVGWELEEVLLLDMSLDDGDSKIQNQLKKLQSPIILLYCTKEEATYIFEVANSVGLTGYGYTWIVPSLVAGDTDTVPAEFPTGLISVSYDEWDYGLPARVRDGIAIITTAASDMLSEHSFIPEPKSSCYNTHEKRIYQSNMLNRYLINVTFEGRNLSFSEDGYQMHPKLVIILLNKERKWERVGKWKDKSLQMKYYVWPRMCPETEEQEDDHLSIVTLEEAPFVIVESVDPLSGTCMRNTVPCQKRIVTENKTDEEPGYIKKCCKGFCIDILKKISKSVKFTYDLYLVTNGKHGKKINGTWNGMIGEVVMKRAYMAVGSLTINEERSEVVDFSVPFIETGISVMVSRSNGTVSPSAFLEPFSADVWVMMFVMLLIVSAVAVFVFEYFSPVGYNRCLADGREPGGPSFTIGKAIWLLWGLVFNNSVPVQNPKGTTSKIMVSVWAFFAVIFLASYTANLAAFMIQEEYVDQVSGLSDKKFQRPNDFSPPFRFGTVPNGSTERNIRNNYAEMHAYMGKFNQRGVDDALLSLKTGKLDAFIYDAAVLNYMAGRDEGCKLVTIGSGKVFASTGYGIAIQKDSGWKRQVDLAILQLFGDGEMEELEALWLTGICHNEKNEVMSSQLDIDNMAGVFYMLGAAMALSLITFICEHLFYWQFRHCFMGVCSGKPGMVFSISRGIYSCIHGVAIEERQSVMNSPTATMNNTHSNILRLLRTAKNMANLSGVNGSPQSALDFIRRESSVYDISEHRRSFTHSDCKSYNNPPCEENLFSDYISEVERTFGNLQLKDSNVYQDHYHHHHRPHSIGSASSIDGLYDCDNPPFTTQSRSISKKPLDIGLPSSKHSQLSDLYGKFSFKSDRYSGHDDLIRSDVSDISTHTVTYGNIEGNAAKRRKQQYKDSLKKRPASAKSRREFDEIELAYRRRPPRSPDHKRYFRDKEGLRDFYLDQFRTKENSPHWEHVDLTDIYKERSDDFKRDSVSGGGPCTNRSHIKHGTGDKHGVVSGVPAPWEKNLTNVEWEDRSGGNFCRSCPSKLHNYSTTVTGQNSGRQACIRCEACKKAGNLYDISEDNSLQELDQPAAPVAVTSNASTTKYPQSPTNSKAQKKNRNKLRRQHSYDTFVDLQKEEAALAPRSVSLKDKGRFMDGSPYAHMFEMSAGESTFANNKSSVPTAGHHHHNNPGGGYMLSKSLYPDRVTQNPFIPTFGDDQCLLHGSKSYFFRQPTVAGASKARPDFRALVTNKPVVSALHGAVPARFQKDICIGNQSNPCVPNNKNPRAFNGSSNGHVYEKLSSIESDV

Question: For `CNC(=O)c1cnc(OCc2cn(-c3ccc(F)c(C(F)F)c3)nn2)nc1` [Example 409, 2-[[1-[3-(Difluoromethyl)-4-fluoro-phenyl]triazol-4-yl]methoxy]-N-methyl-pyrimidine-5-carboxamide], which IC50 is on record?
Answer: 0.149 µM

Question: `CC(C)(O)c1cnc(OCc2cn(-c3cc(F)ccc3F)nn2)nc1` [Example 604, 2-[2-[[1-(2,5-Difluorophenyl)triazol-4-yl]methoxy]pyrimidin-5-yl]propan-2-ol] was tested. Which IC50 did it give?
Answer: 79.7 µM

Question: How did the IC50 turn out when `CNCc1ccnc(OCc2cn(-c3ccc(F)c(OC(F)F)c3)nn2)n1` [Example 520, 1-(2-((1-(3-(Difluoromethoxy)-4-fluorophenyl)-1H-1,2,3-triazol-4-yl)methoxy)pyrimidin-4-yl)-N-methylmethanamine] was run?
Answer: 0.672 µM

Question: With `CC(F)(F)c1cc(-n2cc(COc3nccc(C(F)(F)F)n3)nn2)ccc1Cl` [Example 538, 2-[[1-[4-Chloro-3-(1,1-difluoroethyl)phenyl]triazol-4-yl]methoxy]-4-(trifluoromethyl)pyrimidine] as the compound, how does the IC50 read?
Answer: 0.318 µM

Question: For `CN(C)c1ccnc(OCc2cn(-c3ccc(Cl)c(C(F)F)c3)nn2)n1` [Example 629, 2-[[1-[4-Chloro-3-(difluoromethyl)phenyl]triazol-4-yl]methoxy]-N,N-dimethyl-pyrimidin-4-amine], which IC50 is on record?
Answer: 0.007 µM

Question: Which IC50 does the source give for `Fc1ccc(-n2cc(COc3ncc(F)c(NC4CC4)n3)nn2)cc1OC(F)F` [Example 519, N-Cyclopropyl-2-((1-(3-(difluoromethoxy)-4-fluorophenyl)-1H-1,2,3-triazol-4-yl)methoxy)-5-fluoropyrimidin-4-amine] here?
Answer: 0.204 µM

Question: With `CC(F)(F)c1cc(-n2cc(COc3ncc(CO)cn3)nn2)ccc1Cl` [Example 533, [2-[[1-[4-Chloro-3-(1,1-difluoroethyl)phenyl]triazol-4-yl]methoxy]pyrimidin-5-yl]methanol] as the compound, how does the IC50 read?
Answer: 0.017 µM

Question: For `COc1ncccc1OCc1cn(-c2ccc(F)c(C(C)(F)F)c2)nn1` [Example 561, 3-[[1-[3-(1,1-Difluoroethyl)-4-fluoro-phenyl]triazol-4-yl]methoxy]-2-methoxy-pyridine], which IC50 is on record?
Answer: 0.476 µM

Question: For `COCc1cnc(OCc2cn(-c3ccc(F)c(C(C)(F)F)c3)nn2)nc1` [Example 569, 2-[[1-[3-(1,1-Difluoroethyl)-4-fluoro-phenyl]triazol-4-yl]methoxy]-5-(methoxymethyl)pyrimidine], which IC50 is on record?
Answer: 0.089 µM

Question: For `Cc1cccc(OCc2cn(-c3ccc(F)c(C(C)(F)F)c3)nn2)n1` [Example 556, 2-[[1-[3-(1,1-Difluoroethyl)-4-fluoro-phenyl]triazol-4-yl]methoxy]-6-methyl-pyridine], which IC50 is on record?
Answer: 0.098 µM

Question: For `COCc1ccnc(OCc2cn(-c3ccc(F)c(Cl)c3)nn2)n1` [Example 622, 2-[[1-(3-Chloro-4-fluoro-phenyl)triazol-4-yl]methoxy]-4-(methoxymethyl)pyrimidine], which IC50 is on record?
Answer: 0.066 µM

Question: How did the IC50 turn out when `CCc1cnc(OCc2cn(-c3ccc(F)c(F)c3)nn2)nc1` [Example 602, 2-[[1-(3,4-Difluorophenyl)triazol-4-yl]methoxy]-5-ethyl-pyrimidine] was run?
Answer: 0.023 µM

Question: How did the IC50 turn out when `Cc1cc(-n2cc(COc3ncc(C(F)F)cn3)nn2)c(F)cc1F` [Example 656, 5-(Difluoromethyl)-2-[[1-(2,4-difluoro-5-methyl-phenyl)triazol-4-yl]methoxy]pyrimidine] was run?
Answer: 1.51 µM

Question: How did the IC50 turn out when `CN(C)c1ccnc(OCc2cn(-c3ccc(F)c(C(C)(F)F)c3)nn2)n1` [Example 582, 2-[[1-[3-(1,1-Difluoroethyl)-4-fluoro-phenyl]triazol-4-yl]methoxy]-N,N-dimethyl-pyrimidin-4-amine] was run?
Answer: 0.028 µM

same assay, conditions: standard assay; human GluN1/GluN2B, calcium flux (FLIPR), glutamate ~EC80

Question: Which IC50 does the source give for `CC(C)(O)c1cnc(OCc2cn(-c3cccc(C(F)F)c3)nn2)nc1` [Example 272, 2-[2-[[1-[3-(Difluoromethyl)phenyl]triazol-4-yl]methoxy]pyrimidin-5-yl]propan-2-ol] here?
Answer: 0.173 µM

Question: With `FC(F)Oc1cccc(-n2cc(COc3ncccn3)nn2)c1` [Example 323, 2-[[1-[3-(Difluoromethoxy)phenyl]triazol-4-yl]methoxy]pyrimidine] as the compound, how does the IC50 read?
Answer: 0.788 µM

Question: For `Nc1nc(OCc2cn(-c3ccc(F)c(OC(F)F)c3)nn2)ncc1F` [Example 167, 2-((1-(3-(Difluoromethoxy)-4-fluorophenyl)-1H-1,2,3-triazol-4-yl)methoxy)-5-fluoropyrimidin-4-amine], which IC50 is on record?
Answer: 0.013 µM

Question: With `CCc1cnc(NCc2cn(-c3ccc(F)c(C(C)(F)F)c3)nn2)nc1` [Example 207, N-[[1-[3-(1,1-Difluoroethyl)-4-fluoro-phenyl]triazol-4-yl]methyl]-5-ethyl-pyrimidin-2-amine] as the compound, how does the IC50 read?
Answer: 0.128 µM

Question: For `FC(F)c1cnc(OCc2cn(-c3cccc(C(F)F)c3)nn2)nc1` [Example 273, 5-(Difluoromethyl)-2-[[1-[3-(difluoromethyl)phenyl]triazol-4-yl]methoxy]pyrimidine], which IC50 is on record?
Answer: 0.027 µM

Question: With `FC(F)c1cccc(-n2cc(COc3nccc(N4CCCCC4)n3)nn2)c1` [Example 285, 2-[[1-[3-(Difluoromethyl)phenyl]triazol-4-yl]methoxy]-4-(1-piperidyl)pyrimidine] as the compound, how does the IC50 read?
Answer: 0.299 µM

Question: With `Fc1cnc(OCc2cn(-c3ccc(Cl)c(OC(F)F)c3)nn2)cn1` [Example 189, 2-[[1-[4-Chloro-3-(difluoromethoxy)phenyl]triazol-4-yl]methoxy]-5-fluoro-pyrazine] as the compound, how does the IC50 read?
Answer: 1.46 µM

Question: With `FC(F)(F)Oc1ccc(-n2cc(COc3ncccn3)nn2)cc1` [Example 335, 2-[[1-[4-(Trifluoromethoxy)phenyl]triazol-4-yl]methoxy]pyrimidine] as the compound, how does the IC50 read?
Answer: 3.12 µM

Question: How did the IC50 turn out when `Cc1ccc(OCc2cn(-c3ccc(F)c(C(F)F)c3)nn2)nc1` [Example 114, 2-[[1-[3-(Difluoromethyl)-4-fluoro-phenyl]triazol-4-yl]methoxy]-5-methyl-pyridine] was run?
Answer: 0.021 µM

Question: How did the IC50 turn out when `CC(C)c1cnc(OCc2cn(-c3ccc(Cl)c(OC(F)F)c3)nn2)nc1` [Example 373, 2-[[1-[4-Chloro-3-(difluoromethoxy)phenyl]triazol-4-yl]methoxy]-5-isopropyl-pyrimidine] was run?
Answer: 0.01 µM

Question: For `Cc1cnc(NCc2cn(-c3ccc(F)c(C)c3)nn2)nc1` [Example 198, N-[[1-(4-Fluoro-3-methyl-phenyl)triazol-4-yl]methyl]-5-methyl-pyrimidin-2-amine], which IC50 is on record?
Answer: 0.147 µM

Question: For `CC(C)(O)c1cnc(OCc2cn(-c3ccc4c(c3)CCC4)nn2)nc1` [Example 369, 2-[2-[(1-Indan-5-yltriazol-4-yl)methoxy]pyrimidin-5-yl]propan-2-ol], which IC50 is on record?
Answer: 0.175 µM

Question: `FC1(F)Oc2ccc(-n3cc(COc4ncccn4)nn3)cc2O1` [Example 355, 2-[[1-(2,2-Difluoro-1,3-benzodioxol-5-yl)triazol-4-yl]methoxy]pyrimidine] was tested. Which IC50 did it give?
Answer: 0.238 µM

Question: How did the IC50 turn out when `Cn1nccc1NCc1cn(-c2ccc(F)c(C(F)F)c2)nn1` [Example 219, N-((1-(3-(Difluoromethyl)-4-fluorophenyl)-1H-1,2,3-triazol-4-yl)methyl)-1-methyl-1H-pyrazol-5-amine] was run?
Answer: > 10 µM

Question: `COc1cnc(OCc2cn(-c3ccc(F)c(C(F)(F)F)c3)nn2)nc1` [Example 73, 2-[[1-[4-Fluoro-3-(trifluoromethyl)phenyl]triazol-4-yl]methoxy]-5-methoxy-pyrimidine] was tested. Which IC50 did it give?
Answer: 0.008 µM

Question: How did the IC50 turn out when `COCc1ccnc(OCc2cn(-c3cccc(C(F)F)c3)nn2)n1` [Example 271] was run?
Answer: 0.36 µM

Question: `Cc1cnc(OCc2cn(-c3ccnc(Br)c3)nn2)nc1` [Example 177, 2-[[1-(2-Bromo-4-pyridyl)triazol-4-yl]methoxy]-5-methyl-pyrimidine] was tested. Which IC50 did it give?
Answer: 0.172 µM

Question: How did the IC50 turn out when `Fc1ccc(-n2cc(COc3nccc(N4CCOCC4)n3)nn2)cc1OC(F)F` [Example 170, 4-[2-[[1-[3-(Difluoromethoxy)-4-fluoro-phenyl]triazol-4-yl]methoxy]pyrimidin-4-yl]morpholine] was run?
Answer: 0.26 µM

Question: `Cc1cnc(OCc2cn(-c3ccc(Cl)c(OC(F)F)c3)nn2)nc1C` [Example 372, 2-[[1-[4-Chloro-3-(difluoromethoxy)phenyl]triazol-4-yl]methoxy]-4,5-dimethyl-pyrimidine] was tested. Which IC50 did it give?
Answer: 0.008 µM

Question: With `CC(F)(F)c1cc(-n2cc(COc3nccc(-c4cn[nH]c4)n3)nn2)ccc1F` [Example 186, 2-[[1-[3-(1,1-Difluoroethyl)-4-fluoro-phenyl]triazol-4-yl]methoxy]-4-(1H-pyrazol-4-yl)pyrimidine] as the compound, how does the IC50 read?
Answer: 1.36 µM

Question: `CC(F)(F)c1cccc(-n2cc(COc3ncc(C(F)F)cn3)nn2)c1` [Example 302, 2-[[1-[3-(1,1-Difluoroethyl)phenyl]triazol-4-yl]methoxy]-5-(difluoromethyl)pyrimidine] was tested. Which IC50 did it give?
Answer: 0.002 µM

Question: For `Cc1cnc(OCc2cn(-c3cccc(OC(F)(F)F)c3)nn2)nc1N` [Example 343, 5-Methyl-2-[[1-[3-(trifluoromethoxy)phenyl]triazol-4-yl]methoxy]pyrimidin-4-amine], which IC50 is on record?
Answer: 0.04 µM

— patent US10233173B2, “Substituted 1,2,3-triazoles as NR2B-selective NMDA modulators” (JANSSEN PHARMACEUTICA NV, priority 2016, dated 2019)
